What all share (assay): HDAC6 fluorescence anisotropy assay
Common to all, as to conditions: 25 °C

In assay [1] the target is T1, Histone deacetylase 6 [440-798] (Danio rerio, UniProt F8W4B7).
T1 construct: 440-798
T1 sequence (F8W4B7 whole entry): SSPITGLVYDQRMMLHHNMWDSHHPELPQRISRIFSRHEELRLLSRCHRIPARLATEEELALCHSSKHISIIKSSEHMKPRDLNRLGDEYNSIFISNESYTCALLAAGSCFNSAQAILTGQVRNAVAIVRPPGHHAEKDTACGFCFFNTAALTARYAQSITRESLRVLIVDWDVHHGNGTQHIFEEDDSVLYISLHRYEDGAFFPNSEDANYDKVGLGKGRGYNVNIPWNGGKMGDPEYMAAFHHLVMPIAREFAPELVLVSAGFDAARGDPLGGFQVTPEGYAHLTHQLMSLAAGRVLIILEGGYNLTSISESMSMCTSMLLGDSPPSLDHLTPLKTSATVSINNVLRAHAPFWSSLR

The target of assay [2] is T2, Histone deacetylase 6 [440-798,S531A] (Danio rerio, UniProt F8W4B7, S531A).
T2 construct: 440-798

In assay [3] the target is T3, Histone deacetylase 6 [60-420,H82F,F202Y] (Danio rerio, UniProt F8W4B7, F202Y/H82F).
T3 construct: 60-420

The target in assay [4] is T4, Histone deacetylase 6 [60-420] (Danio rerio, UniProt F8W4B7).
T4 construct: 60-420
T4 sequence (F8W4B7 whole entry): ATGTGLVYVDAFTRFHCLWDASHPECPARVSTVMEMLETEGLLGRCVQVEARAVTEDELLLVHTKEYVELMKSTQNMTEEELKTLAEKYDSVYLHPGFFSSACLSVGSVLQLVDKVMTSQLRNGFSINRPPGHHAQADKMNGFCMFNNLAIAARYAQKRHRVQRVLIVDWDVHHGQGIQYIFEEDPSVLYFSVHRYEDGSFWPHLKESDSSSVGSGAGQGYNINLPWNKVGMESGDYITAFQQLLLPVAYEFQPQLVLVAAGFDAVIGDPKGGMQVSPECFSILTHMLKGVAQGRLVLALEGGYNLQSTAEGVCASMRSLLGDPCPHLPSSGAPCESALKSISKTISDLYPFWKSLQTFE

The target in assay [5] is T5, Histone deacetylase 6 [84-835] (Homo sapiens, UniProt Q9UBN7).
T5 construct: 84-835
T5 sequence (Q9UBN7 whole entry): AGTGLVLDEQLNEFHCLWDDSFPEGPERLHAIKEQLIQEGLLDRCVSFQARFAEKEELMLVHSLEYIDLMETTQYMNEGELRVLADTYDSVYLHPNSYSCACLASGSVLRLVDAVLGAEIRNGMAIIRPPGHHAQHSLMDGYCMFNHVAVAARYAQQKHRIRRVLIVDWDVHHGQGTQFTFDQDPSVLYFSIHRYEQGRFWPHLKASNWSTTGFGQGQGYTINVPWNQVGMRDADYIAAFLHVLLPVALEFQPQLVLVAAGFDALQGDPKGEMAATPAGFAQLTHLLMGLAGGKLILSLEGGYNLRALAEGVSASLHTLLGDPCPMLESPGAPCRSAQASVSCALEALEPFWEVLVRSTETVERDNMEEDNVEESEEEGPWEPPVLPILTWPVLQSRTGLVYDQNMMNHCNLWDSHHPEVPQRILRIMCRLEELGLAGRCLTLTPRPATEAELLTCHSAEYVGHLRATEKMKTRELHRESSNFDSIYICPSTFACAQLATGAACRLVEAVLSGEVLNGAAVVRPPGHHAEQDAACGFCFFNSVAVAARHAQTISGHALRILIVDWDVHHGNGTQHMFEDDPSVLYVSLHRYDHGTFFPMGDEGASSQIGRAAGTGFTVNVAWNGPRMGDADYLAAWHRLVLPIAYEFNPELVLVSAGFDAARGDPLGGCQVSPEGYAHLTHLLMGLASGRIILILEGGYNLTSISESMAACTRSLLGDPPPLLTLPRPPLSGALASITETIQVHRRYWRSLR

Assay [6] deals with T6, Histone deacetylase 6 [84-835,H255V] (Homo sapiens, UniProt Q9UBN7, H255V).
T6 construct: 84-835

The target in assay [7] is T7, Histone deacetylase 6 [84-835,H651V] (Homo sapiens, UniProt Q9UBN7, H651V).
T7 construct: 84-835
T7 sequence (Q9UBN7 84-835 H651V): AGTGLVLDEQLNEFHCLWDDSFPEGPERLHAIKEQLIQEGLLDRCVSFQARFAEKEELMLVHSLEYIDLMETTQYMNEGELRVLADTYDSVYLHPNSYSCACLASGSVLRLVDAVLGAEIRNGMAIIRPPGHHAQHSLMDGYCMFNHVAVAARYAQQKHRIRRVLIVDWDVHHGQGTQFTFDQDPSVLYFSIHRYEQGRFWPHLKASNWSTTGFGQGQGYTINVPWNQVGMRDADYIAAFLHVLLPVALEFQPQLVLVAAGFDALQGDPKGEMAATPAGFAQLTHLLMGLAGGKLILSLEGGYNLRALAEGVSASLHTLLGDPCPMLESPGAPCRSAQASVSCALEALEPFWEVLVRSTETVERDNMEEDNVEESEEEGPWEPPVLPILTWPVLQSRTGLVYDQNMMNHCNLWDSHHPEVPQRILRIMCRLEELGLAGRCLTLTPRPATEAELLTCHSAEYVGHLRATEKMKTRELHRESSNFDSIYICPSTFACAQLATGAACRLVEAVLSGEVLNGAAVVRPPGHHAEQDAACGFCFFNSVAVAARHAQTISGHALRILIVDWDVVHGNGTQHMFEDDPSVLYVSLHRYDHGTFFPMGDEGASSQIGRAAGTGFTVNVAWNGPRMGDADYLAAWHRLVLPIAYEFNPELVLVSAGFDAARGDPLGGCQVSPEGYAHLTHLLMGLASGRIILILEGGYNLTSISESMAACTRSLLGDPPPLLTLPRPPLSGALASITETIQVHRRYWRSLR

T2 sequence (F8W4B7 as listed by the source S531A): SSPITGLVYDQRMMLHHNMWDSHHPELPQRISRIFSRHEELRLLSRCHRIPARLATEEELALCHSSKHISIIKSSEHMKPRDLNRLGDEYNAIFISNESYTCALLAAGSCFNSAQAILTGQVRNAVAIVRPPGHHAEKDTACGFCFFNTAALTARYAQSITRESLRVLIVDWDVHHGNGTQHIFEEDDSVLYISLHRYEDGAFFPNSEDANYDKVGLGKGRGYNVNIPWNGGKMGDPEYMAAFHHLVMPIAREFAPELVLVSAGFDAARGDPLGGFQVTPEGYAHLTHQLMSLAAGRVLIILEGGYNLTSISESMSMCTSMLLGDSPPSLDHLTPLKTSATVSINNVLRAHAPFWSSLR
T6 sequence (Q9UBN7 84-835 H255V): as the sequence (Q9UBN7 84-835 H651V) above, with H172V, V568H counted along it
T3 sequence (F8W4B7 as listed by the source H82F/F202Y): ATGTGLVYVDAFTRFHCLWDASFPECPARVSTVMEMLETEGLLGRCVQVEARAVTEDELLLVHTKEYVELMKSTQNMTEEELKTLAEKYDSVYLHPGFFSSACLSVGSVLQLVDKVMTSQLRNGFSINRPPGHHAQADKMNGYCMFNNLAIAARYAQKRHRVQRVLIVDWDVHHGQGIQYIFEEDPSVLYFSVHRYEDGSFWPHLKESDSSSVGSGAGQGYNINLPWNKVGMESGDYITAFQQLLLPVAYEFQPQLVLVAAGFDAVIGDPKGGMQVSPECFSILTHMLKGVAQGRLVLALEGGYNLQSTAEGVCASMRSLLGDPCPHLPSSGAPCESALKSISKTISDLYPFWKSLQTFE

Regarding `O=C(/C=C/c1cccc(S(=O)(=O)Nc2ccccc2)c1)NO` [Belinostat], in assay [1], half-maximal inhibition (IC50) required 0.0019 µM and the Ki was 0.0011 µM.
On to `O=C(NO)c1ccc(CC(=O)N(CCO)c2ccccc2)cc1` [HPOB], for which, in assay [1], the IC50 is 0.0018 µM and the Ki was found to be 0.001 µM.
Turning to `Cc1[nH]c2ccccc2c1CCNCc1ccc(C=CC(=O)NO)cc1` [Panobinostat], in assay [1], the midpoint of inhibition, the IC50, lay at 0.0025 µM and the Ki came out at 0.0014 µM.
For `CC(=O)C(F)(F)F` [Trifluoroketone], in that order: 1.4 µM and 0.8 µM.
For `O=C(CCCCCCC(=O)Nc1ccccc1)NO` [Zolinza], in that order: not above 0.0011 µM and 0.0006 µM.
Regarding `O=C(CCCCCCC(=O)Nc1ccc(-c2c3ccc(=O)cc-3oc3cc(O)ccc23)c(C(=O)O)c1)NO` [fl-SAHA], the Kd was determined as 0.17 µM in assay [2]; 2.9 µM in assay [3]; 1.6 µM in assay [4]; 0.05 µM in assay [1]; 0.3 µM in assay [5]; 0.24 µM in assay [6]. Besides, the affinity in assay [7], expressed as Kd, was 30 µM.

These data come from BindingDB's records for doi:10.1038/nchembio.2134 (University of Pennsylvania, 2016).
